According to patent publication US11459338B2, “Heterocyclic compounds as PRMT5 inhibitors” (JUBILANT EPISCRIBE LLC, priority 2018, dated 2022):
Where two headings read alike, the source gives them in different places.

Assays:
[1] = molecular target: T1, PRMT5/MEP50 (Homo sapiens, UniProt O14744); assay: PRMT5/MEP50 enzyme assay on peptide substrates (3H-SAM Flashplate); assay type: biochemical; settings: PRMT5/MEP50 10 nM, H4 1-15aa peptide 100 nM, 3H-SAM 1 μM
T1 construct: Full-length human PRMT5 (NP_006100)
T1 sequence (O14744 whole entry): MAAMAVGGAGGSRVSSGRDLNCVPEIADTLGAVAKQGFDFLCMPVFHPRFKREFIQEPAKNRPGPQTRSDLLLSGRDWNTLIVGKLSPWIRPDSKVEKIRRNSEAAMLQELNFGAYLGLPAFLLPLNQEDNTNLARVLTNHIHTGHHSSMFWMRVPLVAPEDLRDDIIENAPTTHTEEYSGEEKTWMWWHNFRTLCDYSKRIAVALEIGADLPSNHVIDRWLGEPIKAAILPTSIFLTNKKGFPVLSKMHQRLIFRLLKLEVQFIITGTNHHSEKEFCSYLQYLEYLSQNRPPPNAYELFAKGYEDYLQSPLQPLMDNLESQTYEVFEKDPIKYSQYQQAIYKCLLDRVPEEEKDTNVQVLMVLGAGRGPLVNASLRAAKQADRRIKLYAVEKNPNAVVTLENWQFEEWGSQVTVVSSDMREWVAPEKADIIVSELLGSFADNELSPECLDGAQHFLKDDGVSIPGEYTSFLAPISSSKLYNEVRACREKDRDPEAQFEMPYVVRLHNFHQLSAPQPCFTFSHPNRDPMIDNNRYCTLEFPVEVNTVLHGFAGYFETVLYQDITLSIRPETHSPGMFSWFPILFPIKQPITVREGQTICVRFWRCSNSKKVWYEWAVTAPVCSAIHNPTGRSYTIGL
T1 sequence (Q9BQA1 whole entry partner): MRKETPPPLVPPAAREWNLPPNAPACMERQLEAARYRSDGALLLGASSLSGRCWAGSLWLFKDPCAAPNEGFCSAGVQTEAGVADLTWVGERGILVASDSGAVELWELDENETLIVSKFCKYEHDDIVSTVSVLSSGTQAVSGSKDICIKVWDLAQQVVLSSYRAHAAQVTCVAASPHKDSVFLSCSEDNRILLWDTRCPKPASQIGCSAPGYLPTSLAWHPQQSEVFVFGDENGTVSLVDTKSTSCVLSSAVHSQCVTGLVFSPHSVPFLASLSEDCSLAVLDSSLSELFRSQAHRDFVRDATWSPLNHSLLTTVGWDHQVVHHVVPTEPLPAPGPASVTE

[2] = system: Symmetric di-methyl arginine in Z-138 cells; assay: Z-138 methylation assay, ELISA for detection of symmetric di-methyl arginine; assay type: cell-based; settings: Homo sapiens
Protocol: General reagents. […] Iscove's Modified Dulbecco's Medium (IMDM), Horse serum, penicillin-streptomycin, PBS and TMB-ELISA substrate solution were purchased from ThermoFisher Scientific. Symmetric di-methyl arginine antibody was purchased from Cell Signaling Technologies.Anti-SNRPD3/SmD3 antibody was purchased from Sigma-Aldrich.
ELISA for detection of Symmetric di-methyl arginine. […] A compound source plate was prepared by performing ten-point 3-fold dilution in DMSO, such that the final top concentration of the compound was 10 μM, and DMSO was 0.3%. The total volume of compounds added was 20 μL. The cells were incubated for 96 h at 37° C., 5% CO2. Z-138 cells were directly lysed in media with 3× Lysis Buffer (1×: 10 mM HEPES pH7.9, 5 mM MgCl2, 1M NaCl, 0.25M Sucrose, 1% Triton X-100, 1 mM PMSF, Protease & Phosphatase inhibitors). […] Plates were incubated at room temperature for a minimum of 3 h and then washed with PBS-Tween 20 (0.05%). The plates were blocked with 5% BSA at room temperature for 1 h, washed with PBS-Tween 20 and incubated with primary antibody at 4 C overnight.

[3] = system: Z-138 cells; assay: Z-138 long term proliferation assay (Cell Titer Glo); assay type: cell-based; settings: Homo sapiens; for GI50: 192 h, Z-138 cells, cell viability, day 8, read-out: PRMT5 Z138 GI50 Day 8 μM; for IC50: Z-138, 192 h, summary of Table 1, read-out: IC50 value (all the three assays): Z138 GI50 Day 8
Outline: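 Z-138 cells exposed to ten-point 3-fold dilutions (top 10 μM, 0.3% DMSO) for 96 h at 37° C., 5% CO2, then re-dosed for four more days.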

[4] = Z-138, 96 h, summary of Table 1, read-out: IC50 value (all the three assays): Z138 SDMA ELISA Day 4
[5] = Z-138 cells, 96 h (day 4), read-out: PRMT5 Z138 SDMA ELISA Day 4 μM

Row | SMILES | IC50 [1] [nM] | IC50 [2, 4] [nM] | IC50 [2, 5] [nM] | GI50 [3] [nM] | IC50 [3] [nM]
1 | CC(C)c1ccc2nc(C(=O)NCC(O)CN3CCc4ccccc4C3)cn2c1 (stereo in doubt) [Example 12, (S)—N-(3-(3,4-dihydroisoquinolin-2(1H)-yl)-2-hydroxypropyl)-6-isopropylimidazo [1,2-a]pyridine-2-carboxamide] | 10 to 1000 | 10 to 1000 | 10 to 1000 | 10 to 1000 | 10 to 1000
2 | O=C(NCC(O)CN1CCc2ccccc2C1)c1cn2cc(C(F)(F)F)ccc2n1 (stereo not shown) [Example 1, N-(3-(3,4-dihydroisoquinolin-2(1H)-yl)-2-hydroxypropyl)-6-(trifluoromethyl)imidazo[1,2-a]pyridine-2-carboxamide] | 10 to 1000 | 10 to 1000 | 10 to 1000 | 10 to 1000 | 10 to 1000
3 | CCCc1nc(-c2ccc3nc(C(=O)NC[C@H](O)CN4CCc5ccccc5C4)cn3c2)no1 [Example 5, (S)—N-(3-(3,4-dihydroisoquinolin-2(1H)-yl)-2-hydroxypropyl)-6-(5-propyl-1,2,4-oxadiazol-3-yl)imidazo[1,2-a]pyridine-2-carboxamide] | 10 to 1000 | 10 to 1000 | 10 to 1000 | 10 to 1000 | 10 to 1000
4 | Cc1nc(-c2ccc3nc(C(=O)NC[C@H](O)CN4CCc5ccccc5C4)cn3c2)no1 [Example 6, (S)—N-(3-(3,4-dihydroisoquinolin-2(1H)-yl)-2-hydroxypropyl)-6-(5-methyl-1,2,4-oxadiazol-3-yl)imidazo[1,2-a]pyridine-2-carboxamide] | 10 to 1000 | 10 to 1000 | 10 to 1000 | 10 to 1000 | 10 to 1000
5 | O=C(NC[C@H](O)CN1CCc2ccccc2C1)c1cn2cc(C(F)(F)F)ccc2n1 [Example 8, (S)—N-(3-(3,4-dihydroisoquinolin-2(1H)-yl)-2-hydroxypropyl)-6(trifluoromethyl) imidazo[1,2-a]pyridine-2-carboxamide] | 10 to 1000 | 10 to 1000 | 10 to 1000 | 10 to 1000 | 10 to 1000
6 | COc1ccc2nc(C(=O)NCC(O)CN3CCc4ccccc4C3)cn2c1 (stereo not shown) [Example 9, N-(3-(3,4-dihydroisoquinolin-2(1H)-yl)-2-hydroxypropyl)-6-methoxyimidazo [1,2a]pyridine-2-carboxamide] | 1000 to 5000 | – | 10 to 1000 | 1000 to 5000 | –
7 | Cc1noc(C)c1-c1ccc2nc(C(=O)NC[C@H](O)CN3CCc4ccccc4C3)cn2c1 [Example 15, (S)—N-(3-(3,4-dihydroisoquinolin-2(1H)-yl)-2-hydroxypropyl)-6-(3,5-dimethylisoxazol-4-yl)imidazo[1,2-a]pyridine-2-carboxamide] | 10 to 1000 | 10 to 1000 | 10 to 1000 | 10 to 1000 | 10 to 1000
8 | O=C(NC[C@H](O)CN1CCc2ccccc2C1)c1cn2cc(-c3cc(F)cc(F)c3)ccc2n1 [Example 16, (S)-6-(3,5-difluorophenyl)-N-(3-(3,4-dihydroisoquinolin-2(1H)-yl)-2-hydroxypropyl)imidazo[1,2-a]pyridine-2-carboxamide] | 10 to 1000 | 10 to 1000 | 10 to 1000 | 10 to 1000 | 10 to 1000
9 | O=C(NC[C@H](O)CN1CCc2ccccc2C1)c1cn2cc(C3=CCOCC3)ccc2n1 [Example 19, (S)-6-(3,6-dihydro-2H-pyran-4-yl)-N-(3-(3,4-dihydroisoquinolin-2(1H)-yl)-2-hydroxypropyl)imidazo[1,2-a]pyridine-2-carboxamide] | 10 to 1000 | 10 to 1000 | 10 to 1000 | 10 to 1000 | 10 to 1000
10 | O=C(NC[C@H](O)CN1CCc2ccccc2C1)c1cn2c(n1)CCC(C1CC1)C2 (stereo partly drawn) [Example 104, 6-cyclopropyl-N—((S)-3-(3,4-dihydroisoquinolin-2(1H)-yl)-2-hydroxypropyl)-5,6,7,8-tetrahydroimidazo[1,2-a]pyridine-2-carboxamide] | – | – | 10 to 1000 | 1000 to 5000 | –
11 | CCCC1CCn2cc(C(=O)NCC(O)CN3CCc4ccccc4C3)nc2C1 (stereo not shown) [Example 105, N-(3-(3,4-dihydroisoquinolin-2(1H)-yl)-2-hydroxypropyl)-7-propyl-5,6,7,8 tetrahydroimidazo[1,2-a]pyridine-2-carboxamide] | – | – | 10 to 1000 | 1000 to 5000 | –

Continued, in another order:

Row | IC50 [1] [nM] | IC50 [2, 4] [nM] | IC50 [2, 5] [nM] | SMILES | GI50 [3] [nM] | IC50 [3] [nM]
12 | 10 to 1000 | 10 to 1000 | 10 to 1000 | CC(C)Cn1cc(-c2ccc3nc(C(=O)NCC(O)CN4CCc5ccccc5C4)cn3c2)cn1 (stereo in doubt) [Example 18, (S)—N-(3-(3,4-dihydroisoquinolin-2(1H)-yl)-2-hydroxypropyl)-6-(1-isobutyl-1H-pyrazol-4-yl)imidazo[1,2-a]pyridine-2-carboxamide] | 10 to 1000 | 10 to 1000
13 | 10 to 1000 | 10 to 1000 | 10 to 1000 | Cc1ccc2nc(C(=O)NCC(O)CN3CCc4ccccc4C3)cn2c1 (stereo not shown) [Example 2, N-(3-(3,4-dihydroisoquinolin-2(1H)-yl)-2-hydroxypropyl)-6-methylimidazo[1,2-a]pyridine-2-carboxamide] | 10 to 1000 | 10 to 1000
14 | 10 to 1000 | 10 to 1000 | 10 to 1000 | CCn1cc(-c2ccc3nc(C(=O)NC[C@H](O)CN4CCc5ccccc5C4)cn3c2)cn1 [Example 4, (S)—N-(3-(3,4-dihydroisoquinolin-2(1H)-yl)-2-hydroxypropyl)-6-(1-ethyl-1H-pyrazol-4-yl)imidazo [1,2-a]pyridine-2-carboxamide] | 10 to 1000 | 10 to 1000
15 | 10 to 1000 | 10 to 1000 | 10 to 1000 | O=C(NCC(O)CN1CCc2ccccc2C1)c1cn2cc(-c3ccccc3)ccc2n1 (stereo not shown) [Example 10, N-(3-(3,4-dihydroisoquinolin-2(1H)-yl)-2-hydroxypropyl)-6-phenylimidazo[1,2-a]pyridine-2-carboxamide] | 10 to 1000 | 10 to 1000
16 | 10 to 1000 | 10 to 1000 | 10 to 1000 | O=C(NCC(O)CN1CCc2ccccc2C1)c1cn2cc(-c3ccc(F)cc3)ccc2n1 (stereo not shown) [Example 11, N-(3-(3,4-dihydroisoquinolin-2(1H)-yl)-2-hydroxypropyl)-6-(4-fluorophenyl) imidazo[1,2-a]pyridine-2-carboxamide] | 10 to 1000 | 10 to 1000
17 | > 5000 | – | 10 to 1000 | Cn1cc(-c2ccc3nc(C(=O)NC[C@H](O)CN4CCc5ccccc5C4)cn3c2)cn1 [Example 13, (S)—N-(3-(3,4-dihydroisoquinolin-2(1H)-yl)-2-hydroxypropyl)-6-(1-methyl-1H-pyrazol-4-yl)imidazo[1,2-a]pyridine-2-carboxamide] | > 5000 | –
18 | 10 to 1000 | 10 to 1000 | 10 to 1000 | N#Cc1ccc(-c2ccc3nc(C(=O)NC[C@H](O)CN4CCc5ccccc5C4)cn3c2)cc1 [Example 14, (S)-6-(4-cyanophenyl)-N-(3-(3,4-dihydroisoquinolin-2(1H)-yl)-2-hydroxypropyl) imidazo[1,2-a]pyridine-2-carboxamide] | 10 to 1000 | 10 to 1000
19 | 10 to 1000 | 10 to 1000 | 10 to 1000 | O=C(NC[C@H](O)CN1CCc2ccccc2C1)c1cn2cc(-c3ccc(F)cc3)ccc2n1 [Example 17, (S)—N-(3-(3,4-dihydroisoquinolin-2(1H)-yl)-2-hydroxypropyl)-6-(4fluorophenyl) imidazo[1,2-a]pyridine-2-carboxamide] | 10 to 1000 | 10 to 1000
